Data published in publication PMC6797691, “Towards the understanding of the enzymatic cleavage of polyisoprene by the dihaem-dioxygenase RoxA” (AMB Express, 2019).

Target: RoxA (RoxA-Wt, rubber oxygenase A) (Xanthomonas sp. 35Y, UniProt Q7X0P3)
Conditions: RoxA as isolated (oxygenated haem), pyridine 2 mM, pH 7; N-terminal haem iron, displaces bound dioxygen

Sequence of RoxA (RoxA-Wt, rubber oxygenase A) (Q7X0P3 entry or part of it): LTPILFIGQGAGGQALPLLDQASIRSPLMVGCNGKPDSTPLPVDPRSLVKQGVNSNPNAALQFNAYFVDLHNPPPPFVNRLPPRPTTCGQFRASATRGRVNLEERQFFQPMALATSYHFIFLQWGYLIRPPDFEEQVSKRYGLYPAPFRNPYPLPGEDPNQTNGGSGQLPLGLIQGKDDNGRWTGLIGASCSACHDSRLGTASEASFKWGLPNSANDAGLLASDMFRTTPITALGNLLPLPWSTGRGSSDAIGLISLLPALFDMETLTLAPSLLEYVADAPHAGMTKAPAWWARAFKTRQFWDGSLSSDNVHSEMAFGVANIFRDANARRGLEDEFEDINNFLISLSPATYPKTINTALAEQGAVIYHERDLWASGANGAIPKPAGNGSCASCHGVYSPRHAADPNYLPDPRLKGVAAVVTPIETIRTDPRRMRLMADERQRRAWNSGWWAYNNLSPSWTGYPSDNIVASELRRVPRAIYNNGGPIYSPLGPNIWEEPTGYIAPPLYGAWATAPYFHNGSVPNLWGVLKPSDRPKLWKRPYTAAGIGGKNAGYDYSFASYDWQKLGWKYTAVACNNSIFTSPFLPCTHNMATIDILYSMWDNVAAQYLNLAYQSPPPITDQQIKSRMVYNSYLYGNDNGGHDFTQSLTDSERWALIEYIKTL

c1ccncc1 [pyridine]
UV-vis spectroscopy (549 nm band), EPR: displacement of haem-bound dioxygen by N-heterocycles that then serve as artificial ligands to a ferrous haem
